{
  "source": "patent US20230002346A1",
  "about": "“NEW COMPOUNDS AND METHODS” (BenevolentAl Bio Limited, priority 2019, published 2023)",
  "key": {"[1]": {"assay": "Brain to plasma (B:P) ratio in rat", "format": "in vivo, Sprague Dawley Rats", "details": "male, Sprague Dawley, iv, i.v. 0.5 mg/kg, 5% NMP in 30% HPBC in water, timepoints averaged 0.17-1 h"}, "[2]": {"assay": "Rat PK profile (bioavailability, clearance, half-life)", "format": "in vivo", "details": "male, Sprague Dawley, plasma, i.v. dose 0.5 mg/kg", "experimental": "Male Sprague Dawley Rats 300-350 g (Charles River, UK) were group housed, n=3, under a 12 h light/dark cycle with food and water available ad libitum. At 17:00 on the day prior to dosing all food was removed. On the day of dosing animals were weighed, tail marked and dosed via oral gavage with compound at 3 mg/kg in a volume of 5 mL/kg. Animals were culled at 30 min, 1 h and 4 h post dose via intra-peritoneal administration of pentobarbital. Post mortem blood was withdrawn via cardiac puncture, and briefly stored in K2 EDTA blood tubes on ice before being spun at 14,000 g for 4 min at 4° C. Plasma was withdrawn into a 96 well plate, placed on dry ice and stored at −80° C. Brains were quickly dissected and placed on dry ice before storage at −80° C. Bioanalysis of plasma and brain samples is performed as detailed below. Methods were prepared with guidance from industry standard documents.^i,ii\nA 10 mM DMSO stock is used to prepare spiking solutions of test compound in the range of 10-100,000 ng/mL in diluent (MeCN:water, 1;1). Calibration lines are prepared in control male Sprague-Dawley Rat plasma at known concentrations in the range of 1-10000 ng/mL by spiking 2.5 μL of calibration spiking solution into 25 μL control plasma. Experimental samples are thawed to RT and 25 μL aliquots are extracted alongside the calibration lines using protein precipitation (agitation for at least 5 min at RT with 400 μL of MeCN containing 25 ng/mL tolbutamide as an internal standard). Protein precipitates are separated from the extracted test compound by centrifugation at 4000 rpm for 5 min, 4° C. The resulting supernatants are diluted in a ratio of 1:2 with a relevant diluent (e.g. 0.1% formic acid in water or 1:1 MeOH:water). Samples are analysed by UPLC-MS/MS on either an API6500 QTrap or Waters 30 TQS mass spectrometer using previously optimised analytical MRM (multiple reaction monitoring) methods, specific to the test compound. The concentration of test compound in isolated samples is determined following analysis of the samples against the two replicates of the calibration line, injected before and after the sample set with an appropriate regression and weighting used. Only samples within 20% of the expected test concentration are included in the calibration line and any samples that fall outside of the limits of the calibration line will be deemed to be less than or above the limit of quantification (LLoQ/ALoQ).\nPharmacokinetic parameters such as bioavailability (% F), clearance (CL), half-life (T½) and volume of distribution are calculated by non-compartmental analysis using Phoenix Winnonlin 64 software (build 8.0). The bioavailability was calculated from p.o. dosed rats, whereas the clearance and half-life were calculated from i.v. dosed rats. Briefly, in vivo plasma concentrations, timepoints and dose values are imported into the software in a compatible format. Plasma concentration for each animal is plotted against time, and the elimination phase identified and selected. The area under the curve for each plot is calculated using a linear trapezoidal linear interpolation from which pharmacokinetic parameters can subsequently be determined. […] Compounds of the invention have much improved clearance (CL) and half-life (T½) compared to the reference examples."}, "[3]": {"tested_on": "Salmonella typhimurium, strains TA98 and TA100", "assay": "Ames assay (Bacterial Reverse Mutation Test)", "format": "cell-based", "details": "TA98 and TA100, presence and absence of S-9 mix, up to 5000 μg/plate", "experimental": "Examples 50, 52 and 54 were tested, in vitro, for their ability to induce mutations in 2 histidine dependent auxotrophic mutants of Salmonella typhimurium, strains TA98 and TA100. The mutation screen was conducted using the plate incorporation method and was performed in both the presence and absence of S-9 mix (a liver post-mitochondrial fraction derived from the livers of Aroclor 1254 treated rats). The bacteria were exposed to the test items dissolved in DMSO, which was also the negative Control. The test items were tested up to the regulatory maximum dose level. The dose levels used were 5, 15, 50, 150, 500, 1500 or 5000 μg/plate, unless the highest treatment level of the test items was limited by solubility, or toxicity against the background bacterial lawn. Dose levels were expressed in terms of the free base.\nThere were no increases of 2-fold or greater in revertant numbers compared with negative Control values in either strain at any dose level in the presence or absence of S-9 mix, so Examples 50, 52 and 54 were not mutagenic in the Bacterial Reverse Mutation (i.e. Ames) Test under the conditions of this screen."}, "[4]": {"assay": "Kinetic aqueous solubility assay", "format": "physicochemical", "details": "aqueous buffer, kinetic from dmso stock, 0.05M potassium phosphate buffer pH 7.4, 250 μM spike, RT", "in_short": "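Compound added from DMSO stock into 0.05M potassium phosphate buffer pH 7.4 at 250 μM final, shaken 30 min at RT to induce precipitation (n=2). Appearance noted visually. Filtrate concentration determined by UV peak area against calibration standards.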"}},
  "data": [
    {"smiles": "O=C(Nc1ccc(OC(F)(F)Cl)cc1)c1ccc(=O)n(-c2cncc(F)c2)c1", "note": "[Example 54, N-[4-[Chloro(difluoro)methoxy]phenyl]-1-(5-fluoro-3-pyridyl)-6-oxo-pyridine-3-carboxamide]", "values": [
      {"measurement": "Kp", "setting": "[1]", "result": 0.53},
      {"measurement": "clearance", "setting": "[2]; iv", "result": 4, "unit": "mL/min/kg"},
      {"measurement": "half-life", "setting": "[2]; iv, read-out: T½ (converted)", "result": 7.6, "unit": "h"},
      {"measurement": "bioavailability", "setting": "[2]; po, p.o. dose 3 mg/kg", "result": 97, "unit": "%"},
      {"measurement": "mutagenicity in the Bacterial Reverse Mutation (Ames) Test", "setting": "[3]", "result": "not mutagenic"},
      {"measurement": "solubility at 30 min", "setting": "[4]", "result": 170, "unit": "µM"}
    ]}
  ]
}
